Where “and” joins values, the source holds several entries; their conditions need not be identical. Identical values can stand only once.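 Test compounds were applied to cells in 96-well plates for 48 hours at 5 doses. GI50 is the concentration that inhibits growth by half. TGI: concentration producing complete growth inhibition.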
Experiments:
Test in all cases: inhibition of tumour cell growth, NCI panel, 48 h
A549 NSCLC = test system: A549 NSCLC
HCT-116 colon = test system: HCT-116 colon
HL-60(TB) leukemia = test system: HL-60(TB) leukemia
HOP-92 NSCLC = test system: HOP-92 NSCLC
HS 578T breast = test system: HS 578T breast
KM12 colon = test system: KM12 colon
NCI-H226 lung = test system: NCI-H226 lung
NCI-H23 lung = test system: NCI-H23 lung
NCI/ADR-RES ovarian = test system: NCI/ADR-RES ovarian
OVCAR-8 ovarian = test system: OVCAR-8 ovarian
PC-3 prostate = test system: PC-3 prostate
SF-295 CNS = test system: SF-295 CNS
SF-539 CNS = test system: SF-539 CNS
SK-MEL-28 melanoma = test system: SK-MEL-28 melanoma
U251 CNS = test system: U251 CNS

Compound | TGI (A549 NSCLC) [µM] | TGI (HCT-116 colon) [µM] | TGI (HL-60(TB) leukemia) [µM] | TGI (HOP-92 NSCLC) | TGI (HS 578T breast) [µM] | TGI (KM12 colon) [µM] | TGI (NCI-H226 lung) [µM] | TGI (NCI-H23 lung) [µM] | TGI (NCI/ADR-RES ovarian) | TGI (OVCAR-8 ovarian) [µM] | TGI (PC-3 prostate) | TGI (SF-295 CNS) [µM] | TGI (SF-539 CNS) [µM] | TGI (SK-MEL-28 melanoma) [µM] | TGI (U251 CNS) [µM] | GI50 (NCI/ADR-RES ovarian) [µM]
CCCCCCC(=O)OC[n+]1ccc(-c2c(COC(=O)NC(C)C)c(COC(=O)NC(C)C)c3n2CCC3)cc1 | > 100 | > 100 | > 71.4 | > 100 µM | > 100 | > 100 | > 100 | > 100 | > 100 µM | > 100 | > 100 µM | > 100 | > 100 | > 100 | > 100 | 
O=C(c1ccccc1)c1ccc(N2C(=O)/C(=C/c3cccc(Oc4ccccc4)c3)N=C2c2ccccc2)c(N2C(=O)/C(=C/c3cccc(Oc4ccccc4)c3)N=C2c2ccccc2)c1 | > 100 | > 100 | 35.9 | > 100 µM | 88.5 | > 100 |  | > 100 | 69.1 µM | > 100 | > 100 µM | > 100 |  | > 100 | > 100 | 
COc1nc(=O)[nH]c2c1C(c1ccc([N+](=O)[O-])cc1)c1c(OC)nc(=O)[nH]c1O2 | > 100 | > 100 | > 100 |  | > 100 | > 100 | > 100 | > 100 | > 100 µM | > 100 | > 100 µM | > 100 |  | > 100 | > 100 | 
CC(C)=CCC/C(C)=C/Cc1c2c(c3oc(-c4ccc(O)c(O)c4)c(O)c(=O)c3c1O)C=CC(C)(C)O2 | 12.4 | 8.56 | 6.29 |  | 18.7 | 9.89 | 15.2 | 11.6 | 11.7 µM | 7.92 | 12.5 µM | 13.4 | 7 | 10.8 | 10.7 | 
O=C(O)C1=C(CO)Oc2cc3c(cc2C1c1ccc2c(c1)OCO2)OCO3 (stereo not drawn) | > 100 | > 100 | > 100 | > 100 µM |  |  |  | > 100 |  | > 100 |  | > 100 | > 100 | > 100 | > 100 | 
CCCCC(CC)C(=O)Oc1ccc(C(=O)c2ccccc2)c(O)c1 (stereo not drawn) | > 100 | > 100 | > 100 | 59.4 µM | 64.9 | > 100 |  | > 100 | > 100 µM | > 100 | > 100 µM | > 100 | > 100 | > 100 | > 100 | 
CCn1c2ccccc2c2ccc(C3C4C(=O)N(c5cccc6ccccc56)C(=O)C4ON3C(C(N)=O)c3ccccc3)cc21 (stereo not drawn) | > 25 | > 25 | > 25 | > 25 µM | > 25 | > 25 | 8.05 | > 25 | > 25 µM | > 25 | > 25 µM | > 25 | > 25 | > 25 | > 25 | 
NC1=NC(c2ccc(Cl)cc2)=CC(c2cccc(Cl)c2)S1 (stereo not drawn) | 87.2 | > 100 | > 100 | 60.1 µM | 66.7 | > 100 | 71.9 | > 100 | > 100 µM | > 100 | > 100 µM | > 100 | > 100 |  | 55.5 | 
Cc1ccc(C(=O)NC2C(=O)NC(C(C)C)C(=O)N3CCCC3C(=O)N(C)CC(=O)N(C)C(C(C)C)C(=O)OC2C)c2c1Oc1c(c(C(=O)NC3C(=O)NC(C(C)C)C(=O)N4CCCC4C(=O)N(C)CC(=O)N(C)C(C(C)C)C(=O)OC3C)c3nc(-c4ccccc4)c(=O)oc3c1C)N2 (stereo not drawn) | > 100 |  | 0.557 | 0.156 µM and 0.0741 µM | 0.00548 | 0.00317 | 0.00507 | 0.0919 | 2.59 µM and 2.37 µM | 0.0273 | 0.544 µM and 0.129 µM | 0.12 | 0.00264 | 0.0139 |  | 0.0856
CCOC(=O)N1c2ccccc2N(C(=O)OCC)C1CC(=O)/C=C/c1ccccc1 | 18.1 | 11.6 | 6.94 | 6.16 µM | > 19.9 | 9.51 | 6.04 | 8.7 | 9.77 µM | 8.63 | 19.8 µM | 21.7 |  | 28 | 12.8 | 
CC1CC(C)(O)C2C3(C)CCCC2(COC3=O)C12CCC1(CCOC1=O)O2 (stereo not drawn) | > 250 | > 250 | > 250 | > 250 µM |  | > 250 | > 250 | > 250 | > 250 µM | > 250 |  | > 250 | > 250 | > 250 | > 250 | 
COC(=O)[C@]12CC[C@H]3CN(S(=O)(=O)c4ccc(C)cc4)[C@H]([C@H]31)[C@H](c1ccco1)N2S(=O)(=O)c1ccc(C)cc1 | > 100 | > 100 | 91.5 | 62.8 µM | > 100 | > 100 | > 100 | > 100 | > 100 µM | > 100 | > 100 µM | > 100 | > 100 | > 100 | > 100 | 
CCOC(=O)C(C(=O)OCC)c1cc(-c2cc3ccccc3o2)oc(=O)c1C#N | > 100 | 44.9 | 64.8 | 20.6 µM |  | > 100 | 41.9 | 36.7 |  | 49.1 |  | 48.2 | 36.8 | 63.3 | 30.6 | 
CCCCC/C=C\C=C\CCCCCCCCC(=O)OC | > 100 | > 100 | > 100 | > 100 µM | > 100 | > 100 | > 100 | > 100 | > 100 µM | > 100 | > 100 µM | > 100 | > 100 | > 100 | > 100 | 
Nc1[nH]c(=O)nc2c1cnn2COCCO | > 100 | > 100 | > 100 | > 100 µM |  | > 100 | 6.36 | 53.2 |  | > 100 |  | > 100 | > 100 | > 100 | 52.8 | 
